According to patent US20140296212A1, “SUBSTITUTED PHENOXYPROPYLCYCLOAMINE DERIVATIVES AS HISTAMINE-3 (H3) RECEPTOR LIGANDS” (CEPHALON, INC., priority 2009, published 2014):
pKi: −log10 of the molar value. Like-named read-outs stand apart in the source and are kept apart here.

Columns and labels:
[1] = target: T1, human H3 receptor (Homo sapiens, UniProt Q9Y5N1); experiment: Human H3 radioligand binding ([3H]-N-alpha-methylhistamine, SPA); details: membranes of CHO cells expressing human H3
T1 construct: expressed in transfected cells
Method: Cell pellets were resuspended in 5 mM Tris-HCl, pH 7.5 with 5 nM EDTA and a cocktail of protease inhibitors (Complete Protease Inhibitor Tablets, Roche Diagnostics). Cells were disrupted using a polytron cell homogenizer and the suspension was centrifuged at 1000×g for 10 minutes at 4° C. The pellet was discarded and the supernatant centrifuged at 40,000×g for 30 min at 4° C. This membrane pellet was washed in membrane buffer containing 50 mM Tris-HCl, pH 7.5 with 0.6 mM EDTA, 5 mM MgCl2 and protease inhibitors, recentrifuged as above and the final pellet resuspended in membrane buffer plus 250 mM sucrose and frozen at −80° C.
(§1) Membranes were resuspended in 50 mM Tris HCl (pH 7.4), 5 mM MgCl2, 0.1% BSA. The membrane suspensions (10 μg protein per well) were incubated in a 96 well microtiter plate with [^3H]-N-alpha-methylhistamine (approximately 1 nM final concentration), test compounds at various concentrations (0.01 nM-30 μM) and scintillation proximity beads (Perkin Elmer, FlashBlueGPCR Scintillating Beads) in a final volume of 80 μl for 4 hours at room temperature, protected from light. Non-specific binding was determined in the presence of 10 μM clobenpropit. Radioligand bound to receptor, and therefore in proximity to the scintillation beads, was measured using a MicroBeta scintillation counter.

[2] = target: T2, rat histamine H3 receptor (Rattus norvegicus, UniProt Q9QYN8); experiment: Rat H3 radioligand binding ([3H]-N-alpha-methylhistamine, SPA)
T2 construct: encoding the entire 445-amino-acid rat histamine H3 receptor; expressed in transfected cells
Source text: The rat H3 receptor cDNA was PCR amplified from reverse-transcribed RNA pooled from rat thalamus, hypothalamus, striatum and prefrontal cortex with a sequence corresponding to by #338-1672 of Genbank file #NM_053506, encoding the entire 445-amino-acid rat histamine H3 receptor. This was engineered into the pIRES-neo3 mammalian expression vector, which was stably transfected into the CHO-A3 cell line (Euroscreen, Belgium), followed by clonal selection by limiting dilution. Cells were harvested and cell pellets were frozen (−80° C.). Cell pellets were resuspended in 5 mM Tris-HCl, pH 7.5 with 5 nM EDTA and a cocktail of protease inhibitors (Complete Protease Inhibitor Tablets, Roche Diagnostics). Cells were disrupted using a polytron cell homogenizer and the suspension was centrifuged at 1000×g for 10 minutes at 4° C. The pellet was discarded and the supernatant centrifuged at 40,000×g for 30 min at 4° C. This membrane pellet was washed in membrane buffer containing 50 mM Tris-HCl, pH 7.5 with 0.6 mM EDTA, 5 mM MgCl2 and protease inhibitors, recentrifuged as above and the final pellet resuspended in membrane buffer plus 250 mM sucrose and frozen at −80° C.
as §1

[3] = membranes of CHO-A3 cells expressing rat H3, [3H]-N-alpha-methylhistamine, read-out: Rat H3 Ki

T1 sequence (Q9Y5N1 whole entry): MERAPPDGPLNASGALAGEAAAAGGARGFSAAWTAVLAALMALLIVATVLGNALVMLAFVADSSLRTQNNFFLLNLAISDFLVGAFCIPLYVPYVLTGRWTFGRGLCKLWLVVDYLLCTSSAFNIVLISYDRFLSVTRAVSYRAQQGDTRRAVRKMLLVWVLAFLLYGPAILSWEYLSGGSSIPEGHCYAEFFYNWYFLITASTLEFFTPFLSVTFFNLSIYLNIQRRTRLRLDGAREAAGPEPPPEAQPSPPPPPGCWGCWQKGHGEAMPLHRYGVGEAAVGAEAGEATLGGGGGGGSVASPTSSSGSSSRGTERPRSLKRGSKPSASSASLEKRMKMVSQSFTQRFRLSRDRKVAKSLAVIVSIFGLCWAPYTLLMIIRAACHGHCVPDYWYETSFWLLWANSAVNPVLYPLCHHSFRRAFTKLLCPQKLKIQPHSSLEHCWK
T2 sequence (Q9QYN8 whole entry): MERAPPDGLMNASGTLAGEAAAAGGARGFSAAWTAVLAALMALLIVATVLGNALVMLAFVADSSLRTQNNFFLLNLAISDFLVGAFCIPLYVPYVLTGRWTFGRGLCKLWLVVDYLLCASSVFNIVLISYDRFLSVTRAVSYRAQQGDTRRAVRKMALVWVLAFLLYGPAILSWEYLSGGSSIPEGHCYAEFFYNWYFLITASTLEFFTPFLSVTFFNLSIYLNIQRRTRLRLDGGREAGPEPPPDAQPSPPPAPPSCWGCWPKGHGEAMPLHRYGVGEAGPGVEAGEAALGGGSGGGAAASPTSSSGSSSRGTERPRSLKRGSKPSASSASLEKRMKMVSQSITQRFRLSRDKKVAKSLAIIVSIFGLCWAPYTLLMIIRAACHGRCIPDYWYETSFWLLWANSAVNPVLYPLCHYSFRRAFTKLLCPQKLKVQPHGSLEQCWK

SMILES	pKi [1]	pKi [2, 3]	pKi [2]
O=C(CN1CCOCC1)c1ccc(OCCCN2CCCC2)cc1 [Example 15, 2-Morpholin-4-yl-1-[4-(3-pyrrolidin-1-yl-propoxy)-phenyl]-ethanone]	6.30 to 7.00	6.00 to 6.30	
C[C@@H]1CCCN1CCCOc1ccc(C(=O)CN2CCCC2=O)cc1 [Example 21, 1-(2-{4-[3-((R)-2-Methyl-pyrrolidin-1-yl)-propoxy]-phenyl}-2-oxo-ethyl)-pyrrolidin-2-one]	7.00 to 10.00	6.30 to 7.00	
C[C@@H]1CCCN1CCCOc1ccc(C(=O)CN2CCCCC2=O)cc1 [Example 22, 1-(2-{4-[3-((R)-2-Methyl-pyrrolidin-1-yl)-propoxy]-phenyl}-2-oxo-ethyl)-piperidin-2-one]	7.00 to 10.00	6.30 to 7.00	
CC1CCCN1CCCOc1ccc(C(=O)C(C)N2CCOCC2)cc1 (centres unmarked) [Example 27, 1-{4-[3-(2-Methyl-pyrrolidin-1-yl)-propoxy]-phenyl}-2-morpholin-4-yl-propan-1-one]	7.00 to 10.00		7.00 to 10.00
C[C@@H]1CCCN1CCCOc1ccc(C(=O)CN2CCOC(c3ccccc3)C2)cc1 (stereo partly drawn) [Example 29, 1-{4-[3-((R)-2-Methyl-pyrrolidin-1-yl)-propoxy]-phenyl}-2-(2-phenyl-morpholin-4-yl)-ethanone]	7.00 to 10.00	7.00 to 10.00	
C[C@@H]1CN(CC(=O)c2ccc(OCCCN3CCC[C@H]3C)cc2)C[C@H](C)O1 [Example 38, 2-((2R,6S)-2,6-Dimethyl-morpholin-4-yl)-1-{4-[3-((R)-2-methyl-pyrrolidin-1-yl)-propoxy]-phenyl}-ethanone]	7.00 to 10.00	7.00 to 10.00	
C[C@@H]1CCCN1CCCOc1ccc(C(=O)CN2CCO[C@@H](c3ccccc3)C2)cc1 [Example 39, 1-{4-[3-((R)-2-Methyl-pyrrolidin-1-yl)-propoxy]-phenyl}-2-((S)-2-phenyl-morpholin-4-yl)-ethanone]	7.00 to 10.00	7.00 to 10.00	
C[C@@H]1CCCN1CCCOc1ccc(C(=O)CN2CCO[C@H](c3ccccc3)C2)cc1 [Example 40, 1-{4-[3-((R)-2-Methyl-pyrrolidin-1-yl)-propoxy]-phenyl}-2-((R)-2-phenyl-morpholin-4-yl)-ethanone]	7.00 to 10.00	7.00 to 10.00	
C[C@@H]1CCCN1CCCOc1ccc(C(=O)CN2CCC(C#N)CC2)cc1 [Example 43, 1-(2-{4-[3-((R)-2-Methyl-pyrrolidin-1-yl)-propoxy]-phenyl}-2-oxo-ethyl)-piperidine-4-carbonitrile]	7.00 to 10.00	7.00 to 10.00	
CC(C)N1CCC(Oc2ccc(C(=O)CN3CCOCC3)cc2)CC1 [Example 45, 1-[4-(1-Isopropyl-piperidin-4-yloxy)-phenyl]-2-morpholin-4-yl-ethanone]	7.00 to 10.00	6.30 to 7.00	
C[C@@H]1CCCN1CCCOc1ccc(C(=O)CN2CCC(C(F)(F)F)CC2)cc1 [Example 47, 1-{4-[3-((R)-2-Methyl-pyrrolidin-1-yl)-propoxy]-phenyl}-2-(4-trifluoromethyl-piperidin-1-yl)-ethanone]	7.00 to 10.00	7.00 to 10.00	
C[C@@H]1CCCN1CCCOc1ccc(C(=O)CN2CCCC(F)(F)C2)cc1 [Example 52, 2-(3,3-Difluoro-piperidin-1-yl)-1-{4-[3-((R)-2-methyl-pyrrolidin-1-yl)-propoxy]-phenyl}-ethanone]	7.00 to 10.00	7.00 to 10.00	
C[C@@H]1CCCN1CCCOc1ccc(C(=O)C(C)(C)N2CCOCC2)cc1 [Example 54]	7.00 to 10.00	7.00 to 10.00	
C[C@@H]1CCCN1CCCOc1ccc(C(=O)CN2CCC(F)(F)C2)cc1 [Example 60, 2-(3,3-Difluoro-pyrrolidin-1-yl)-1-{4-[3-((R)-2-methyl-pyrrolidin-1-yl)-propoxy]-phenyl}-ethanone]	7.00 to 10.00	7.00 to 10.00	
C[C@@H]1CCCN1CCCOc1ccc(C(=O)CN2CCN(C(=O)C(F)(F)F)CC2)cc1 [Example 64]	7.00 to 10.00	7.00 to 10.00	
O=C(CN1CCOCC1)c1ccc(OCCCN2CCCC2=O)cc1 [Example 67, 1-{3-[4-(2-Morpholin-4-yl-acetyl)-phenoxy]-propyl}-pyrrolidin-2-one]	< 6.00	< 6.00	

SMILES	pKi [1]	pKi [2, 3]	pKi [2]
C[C@@H]1CCCN1CCCOc1ccc(C(=O)CN2CCN(C(=O)c3ccccc3)CC2)cc1 [Example 68, 2-(4-Benzoyl-piperazin-1-yl)-1-{4-[3-((R)-2-methyl-pyrrolidin-1-yl)-propoxy]-phenyl}-ethanone]	7.00 to 10.00	7.00 to 10.00	
C[C@@H]1CCCN1CCCOc1ccc(C(=O)CN2Cc3ccccc3C2)cc1 [Example 73, 2-(1,3-Dihydro-isoindol-2-yl)-1-{4-[3-((R)-2-methyl-pyrrolidin-1-yl)-propoxy]-phenyl}-ethanone]	7.00 to 10.00	7.00 to 10.00	
Cc1cc(OCCCN2CCC[C@H]2C)ccc1C(=O)CN1CCOCC1 [Example 74, 1-{2-Methyl-4-[3-((R)-2-methyl-pyrrolidin-1-yl)-propoxy]-phenyl}-2-morpholin-4-yl-ethanone]	7.00 to 10.00	6.30 to 7.00	
C[C@@H]1CCCN1CCCOc1ccc(C(=O)CN2Cc3ccc(F)cc3C2)cc1 [Example 86, 2-(5-Fluoro-1,3-dihydro-isoindol-2-yl)-1-{4-[3-((R)-2-methyl-pyrrolidin-1-yl)-propoxy]-phenyl}-ethanone]	7.00 to 10.00	7.00 to 10.00	
C[C@@H]1CCCN1CCCOc1ccc(C(=O)CN2CCN(C(=O)c3ccccc3)CC2)c(F)c1 [Example 103, 2-(4-Benzoyl-piperazin-1-yl)-1-{2-fluoro-4-[3-((R)-2-methyl-pyrrolidin-1-yl)-propoxy]-phenyl}-ethanone]	7.00 to 10.00	7.00 to 10.00	
Cc1cc(C(=O)CN2CCN(C(=O)c3ccccc3)CC2)ccc1OCCCN1CCC[C@H]1C [Example 107, 2-(4-Benzoyl-piperazin-1-yl)-1-{3-methyl-4-[3-((R)-2-methyl-pyrrolidin-1-yl)-propoxy]-phenyl}-ethanone]	7.00 to 10.00	7.00 to 10.00	
COc1cc(C(=O)CN2CCN(C(=O)c3ccccc3)CC2)ccc1OCCCN1CCC[C@H]1C [Example 112, 2-(4-Benzoyl-piperazin-1-yl)-1-{3-methoxy-4-[3-((R)-2-methyl-pyrrolidin-1-yl)-propoxy]-phenyl}-ethanone]	6.30 to 7.00	< 6.00	
CC(C)COC(=O)N1CCN(CC(=O)c2ccc(OCCCN3CCC[C@H]3C)cc2)CC1 [Example 131, 4-(2-{4-[3-((R)-2-Methyl-pyrrolidin-1-yl)-propoxy]-phenyl}-2-oxo-ethyl)-piperazine-1-carboxylic acid isobutyl ester]	7.00 to 10.00	7.00 to 10.00	
C[C@@H]1CCCN1CCCOc1ccc(C(=O)CN2CCN(C(=O)c3cccc4ccccc34)CC2)cc1 [Example 133, 1-{4-[3-((R)-2-Methyl-pyrrolidin-1-yl)-propoxy]-phenyl}-2-[4-(naphthalene-1-carbonyl)-piperazin-1-yl]-ethanone]	7.00 to 10.00	7.00 to 10.00	
Cc1cc(C(=O)CN2CCC(F)(F)CC2)ccc1OCCCN1CCC[C@H]1C [Example 136, 2-(4,4-Difluoro-piperidin-1-yl)-1-{3-methyl-4-[3-((R)-2-methyl-pyrrolidin-1-yl)-propoxy]-phenyl}-ethanone]	7.00 to 10.00	6.30 to 7.00	
COC(=O)N1CCN(CC(=O)c2ccc(OCCCN3CCC[C@H]3C)c(C)c2)CC1 [Example 137, 4-(2-{3-Methyl-4-[3-((R)-2-methyl-pyrrolidin-1-yl)-propoxy]-phenyl}-2-oxo-ethyl)-piperazine-1-carboxylic acid methyl ester]	7.00 to 10.00	7.00 to 10.00	
Cc1cc(C)cc(C(=O)N2CCN(CC(=O)c3ccc(OCCCN4CCC[C@H]4C)cc3)CC2)c1 [Example 140, 2-[4-(3,5-Dimethyl-benzoyl)-piperazin-1-yl]-1-{4-[3-((R)-2-methyl-pyrrolidin-1-yl)-propoxy]-phenyl}-ethanone]	7.00 to 10.00	7.00 to 10.00	
Cc1nc2ccccc2n1CC(=O)c1ccc(OCCCN2CCC[C@H]2C)cc1 [Example 142, 2-(2-Methyl-benzoimidazol-1-yl)-1-{4-[3-((R)-2-methyl-pyrrolidin-1-yl)-propoxy]-phenyl}-ethanone]	7.00 to 10.00	7.00 to 10.00	
C[C@@H]1CCCN1CCCOc1ccc(/C(CN2CCCCC2)=N/OC(C)(C)C)cc1 [Example 160]	7.00 to 10.00	7.00 to 10.00	
C[C@@H]1CCCN1CCCOc1ccc(/C(CN2CCCCC2=O)=N/OC(C)(C)C)cc1 [Example 167]	7.00 to 10.00	7.00 to 10.00	
